Article PMC9370166, “In Vitro and In Vivo Antibacterial Activity, Toxicity and Resistance Analysis of Pleuromutilin Derivative Z33 against Methicillin-Resistant Staphylococcus aureus” (Molecules, 2022)
Converted amounts (≈) assume the structure as drawn. Read-outs that look alike come from different tables or passages of the source.

What was measured:
MRSA ATCC 43300 [1] = test: Time-kill kinetics assay; format: cell-based, Staphylococcus aureus; settings: 8 × MIC; over 24 h of exposure
Procedure: The time–kill kinetics curve of Z33 was determined according to previous reports. MRSA ATCC 43300 strains were grown in Mueller–Hinton Broth (MHB) at the starting inoculum of 10^6 CFU/mL. […] MHB without antibiotics was used as a control. At various time points (0, 3, 6, 9, and 24 h), 100 µL of samples were diluted with 0.9% saline and plated on MHA medium. CFU were recorded after 24 h of incubation at 37 °C.

MRSA ATCC 43300 [2] = test: Post-antibiotic effect assay; format: cell-based, Staphylococcus aureus
Procedure: The PAE was measured using the method described by Jin et al.. MRSA ATCC 43300 cells were collected in the logarithmic phase and resuspended in MHB. The bacterial suspension (10^6 CFU/mL) was inoculated in MHB containing Z33 (final concentration is 2 × or 4 × MIC) and incubated for 1 or 2 h at 37 °C with shaking (210 rpm). The group without the drug served as a control. After treatment with various concentrations of Z33, samples were subjected to one-thousand-fold dilution with MHB to remove the drug and incubated at 37 °C. In total, 100 µL of the samples was serially diluted in 0.9% saline and plated onto MHA at various time points (0, 1, 2, 4, 8 h). MHA plates were incubated at 37 °C for 18~24 h to calculate CFU. The growth kinetic curves of MRSA treated with different drug concentrations were established by plotting log10 CFU/mL of bacterial counts versus time. PAE was presented in hours and calculated according to the following equation: PAE = TA − TC, where TA and TC are the time required for MRSA to rise by 1 log10 CFU/mL after drug removal in the treated and untreated cultures, respectively.

MRSA ATCC 43300 [3] = test: MIC and MBC determination (broth microdilution); format: cell-based; settings: Staphylococcus aureus
Procedure: (§1) The MIC values of Z33 against MRSA ATCC 43300 and S. aureus clinical isolates were measured according to the broth microdilution guidelines provided by the Clinical and Laboratory Standards Institute (CLSI). S. aureus ATCC 29213 was used as the quality control strain, and the quality control range was referred to the CLSI. The MIC value is defined as the lowest concentration of the compounds with no visible growth of bacteria. The MIC assay was independently repeated three times.
(§2) The MBC values of antibacterial agents were measured after incubation at 37 °C for 24 h. Briefly, 100 µL of bacterial solution from the three wells behind the corresponding well of MIC was absorbed and spread on the Mueller–Hinton Agar (MHA). The MBC refers to the lowest concentration corresponding to the amount of colony-forming unit (CFU) ≤ 5 on the medium after 18~24 h of incubation at 37 °C.

S. aureus ATCC 29213 [4] = test: MIC and MBC determination (broth microdilution); format: cell-based; settings: Staphylococcus aureus
Procedure: as §1, §2

[5] = tested on: S. aureus clinical strain 144; test: MIC and MBC determination (broth microdilution); format: cell-based; settings: Staphylococcus aureus
Procedure: as §1, §2

[6] = tested on: S. aureus clinical strain AD3; test: MIC and MBC determination (broth microdilution); format: cell-based; settings: Staphylococcus aureus
Procedure: as §1, §2

four S. aureus strains [7] = test: MPC, summary over four strains; format: cell-based, Staphylococcus aureus
Procedure: (§3) The drug-resistant tendency suppression potential of Z33 and tiamulin was determined as described with minor modifications. In the test, for each S. aureus strain, 4 mL of overnight cultures were inoculated into 100 mL of fresh BHI broth and then incubated for 4.5 h at 37 °C with shaking (210 rpm). Cultures were centrifuged at 5000 r/min for 10 min. The supernatant was discarded and resuspended in the 4 mL of saline to achieve a bacterial density of ~3 × 10^10 CFU/mL. In total, 100 μL of each culture was spread onto MHA containing various concentrations of Z33 and tiamulin. […] Plates were incubated at 37 °C for a total of 72 h and recorded every 24 h for the appearance of colonies. MPC was defined as the lowest concentration with no growth of colonies on the agar plate. MPC was carried out in triplicate.

CYP3A4 = target: T1, CYP3A4 (Homo sapiens, UniProt P08684); test: CYP450 inhibition assay, human liver microsomes, testosterone probe; format: in vitro ADME
T1 construct: 40 µL of the human liver microsomal enzyme (final concentration is 0.5 g/L); tissue Research Institute for Liver Diseases Co., Ltd. (Shanghai, China); host or cells: human liver microsomes
T1 sequence (P08684 whole entry): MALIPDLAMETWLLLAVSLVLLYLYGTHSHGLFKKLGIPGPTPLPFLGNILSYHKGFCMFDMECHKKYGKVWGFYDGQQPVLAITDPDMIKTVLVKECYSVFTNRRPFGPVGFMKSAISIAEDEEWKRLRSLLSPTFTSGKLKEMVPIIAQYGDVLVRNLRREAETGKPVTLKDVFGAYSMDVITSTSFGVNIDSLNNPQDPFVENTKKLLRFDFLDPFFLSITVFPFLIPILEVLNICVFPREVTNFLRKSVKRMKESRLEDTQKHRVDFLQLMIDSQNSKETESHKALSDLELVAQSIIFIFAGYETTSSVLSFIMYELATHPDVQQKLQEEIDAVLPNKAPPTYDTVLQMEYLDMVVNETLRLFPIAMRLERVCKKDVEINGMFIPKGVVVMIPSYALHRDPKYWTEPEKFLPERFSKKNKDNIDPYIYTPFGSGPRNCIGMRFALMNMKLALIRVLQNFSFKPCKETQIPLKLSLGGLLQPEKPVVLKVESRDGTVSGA
Procedure: (§4) The inhibition effect of Z33 and tiamulin on the human liver microsomal enzyme was determined as described in the literature with some modifications. Experiments were performed in 96-well plates with a final incubation volume of 100 μL per well. 40 µL of the human liver microsomal enzyme (final concentration is 0.5 g/L), 20 µL of probe substrate (final concentration of testosterone and chlorzoxazone is 20 µmol/L), and 20 µL of test drug were mixed in each well. After preincubation at 37 °C for 5 min, the reactions were started by the addition of 20 μL of NADPH (final concentration is 1 mmol/L). Depending on the substrate, the chlorzoxazone and testosterone groups were incubated at 37 °C for 25 min and 10 min, respectively. The reaction was terminated by adding 100 µL of acetonitrile, and then the supernatant was centrifuged to analyse by LC-MS/MS.

RAW264.7 cells = test: Cytotoxicity test (MTT assay); format: cell-based; settings: concentrations less than 5 μg/mL, 24 h, MTT
Procedure: (§5) To assess the effects of tiamulin and Z33 on the viability of RAW264.7 macrophages, the MTT assay was performed according to previous reports. […] After discarding the MTT solution, DMSO (150 μL) was added to each well to dissolve all crystals. OD490nm was recorded using EnSight Multimode Plate Reader (PerkinElmer, […], USA).

[8] = Cytotoxicity test (MTT assay); format: cell-based; settings: mouse, RAW264.7 macrophages, RAW264.7, MTT, tested up to 20 μg/mL
Procedure: as §5

MRSA ATCC 43300 [9] = test: Determination of MPC (mutant prevention concentration); format: cell-based, Staphylococcus aureus
Procedure: as §3

S. aureus ATCC 29213 [10] = test: as above; format: cell-based, Staphylococcus aureus
Procedure: as §3

[11] = tested on: S. aureus clinical strain 144; test: as above; format: cell-based, Staphylococcus aureus
Procedure: as §3

[12] = tested on: S. aureus clinical strain AD3; test: as above; format: cell-based, Staphylococcus aureus
Procedure: as §3

ICR mice = test: Acute oral toxicity in mice; settings: mouse, in vivo, po, 5000 mg/kg
Procedure: (§6) The acute toxicity of Z33 was performed in mice according to previous works with some modifications. The ICR mice were randomly divided into two groups (10 animals in each group, half male and half female) after 12 h of fasting. Z33 was prepared with 0.5% CMC-Na sodium as a suspension at a concentration of 5 g/kg. Mice in the test group were administered with Z33 suspension by oral administration route, and the control group received an equal dose of 0.5% CMC-Na. All the mice were observed critically once a day for 14 days. The test was repeated twice.

[13] = Acute oral toxicity in mice; settings: both sexes, ICR, mouse, in vivo, 5 g/kg; acute oral toxicity, mice
Procedure: as §6

four S. aureus strains [14] = test: microbe, parasite or virus in culture; format: cell-based, Staphylococcus aureus
Procedure: To assess the propensity for the development of bacterial resistance, the ability of Z33 and tiamulin to induce resistance to four strains were tested, respectively. Serial passages at 37 °C were performed daily in BHI broth containing sub-MIC concentration (1/4 MIC) of Z33 and tiamulin. The MIC values were daily determined and recorded by the broth microdilution method. A duration of 13 passages was performed in every case.

CYP2E1 = target: T2, CYP2E1 (Homo sapiens, UniProt P05181); test: CYP450 inhibition assay, human liver microsomes, chlorzoxazone probe; format: in vitro ADME; settings: for IC50: human liver microsomes
T2 construct: 40 µL of the human liver microsomal enzyme (final concentration is 0.5 g/L); tissue Research Institute for Liver Diseases Co., Ltd. (Shanghai, China); host or cells: human liver microsomes
T2 sequence (P05181 whole entry): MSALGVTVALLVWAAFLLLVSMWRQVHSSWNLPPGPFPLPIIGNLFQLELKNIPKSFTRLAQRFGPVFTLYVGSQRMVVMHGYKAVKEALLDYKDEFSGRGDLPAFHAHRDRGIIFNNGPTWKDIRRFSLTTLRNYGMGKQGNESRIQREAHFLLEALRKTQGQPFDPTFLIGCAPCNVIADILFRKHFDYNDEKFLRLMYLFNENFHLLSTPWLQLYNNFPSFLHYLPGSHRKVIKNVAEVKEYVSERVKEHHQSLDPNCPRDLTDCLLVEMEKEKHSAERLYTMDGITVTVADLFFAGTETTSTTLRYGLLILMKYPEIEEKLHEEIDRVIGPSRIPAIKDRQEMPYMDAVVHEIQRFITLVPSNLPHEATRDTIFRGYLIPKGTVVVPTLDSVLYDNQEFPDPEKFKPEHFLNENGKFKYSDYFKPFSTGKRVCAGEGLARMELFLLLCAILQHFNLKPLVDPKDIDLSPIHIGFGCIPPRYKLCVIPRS
Procedure: as §4

four S. aureus strains [15] = test: MIC and MBC, summary over four strains; format: cell-based; settings: Staphylococcus aureus; range over four strains; read-out: MIC values against four S. aureus strains
Procedure: as §1, §2

MRSA ATCC 43300 [16] = test: Neutropenic mouse thigh infection model; format: in vivo, mice
Procedure: The neutropenic mouse thigh infection model was used to determine the in vivo antibacterial activity of Z33 [23]. Briefly, female mice were rendered neutropenic (neutrophil count ≤ 100/mm^3) via intraperitoneal injection of cyclophosphamide on day 4 (150 mg/kg) and day 1 (100 mg/kg) before infection. MRSA ATCC 43300 cells were collected in the logarithmic phase and resuspended in 0.9% saline. The thigh infection model was established by injection of 100 μL of MRSA suspension (10^7 CFU/mL) into the posterior thighs of mice. After 2 h post-infection, mice were intravenously injected with tiamulin and Z33 at a dose of 20 mg/kg, and the untreated groups were administrated with an equal amount of saline. Mice were euthanized after treatment of 22 h, thigh tissue was aseptically collected, weighed, homogenized, and serially diluted in saline, respectively. CFU counts were determined by the flat colony counting method.

In the case of `C=C[C@]1(C)C[C@@H](OC(=O)CSc2ccccc2NC(=O)Cn2cc(CN3CCN(c4ccc([N+](=O)[O-])cc4)CC3)nn2)[C@]2(C)[C@H](C)CC[C@]3(CCC(=O)[C@H]32)[C@@H](C)[C@@H]1O` [Compound Z33, 22-(2-(2-(4-((4-(4-nitrophenyl)piperazin-1-yl)methyl)-1H-1,2,3-triazol-1-yl)acetamido)phenyl)thioacety-l-yl-22-deoxypleuromutilin], the “concentration showing inhibition of bacterial growth (time-kill)” value (MRSA ATCC 43300 [1]) is reported as 1 µg/mL, the PAE (MRSA ATCC 43300 [2]; 2 × MIC, exposure for 1 h) is reported as 2.24 h and the PAE (MRSA ATCC 43300 [2]; 2 × MIC, exposure for 2 h) is reported as 2.18 h. The PAE (MRSA ATCC 43300 [2]; 4 × MIC, exposure for 1 h) was 3.89 h, the PAE (MRSA ATCC 43300 [2]; 4 × MIC, exposure for 2 h) was 3.93 h and the MIC (MRSA ATCC 43300 [3]; first value of MIC/MBC cell) was 0.125 µg/mL (≈ 0.154 µM). It also gave an MBC (MRSA ATCC 43300 [3]; second value of MIC/MBC cell) of 0.25 µg/mL (≈ 0.307 µM), an MIC (S. aureus ATCC 29213 [4]; ATCC29213, first value of cell) of 0.125 µg/mL (≈ 0.154 µM) and an MBC (S. aureus ATCC 29213 [4]; ATCC29213, second value of cell) of 0.125 µg/mL (≈ 0.154 µM). It also gave an MIC ([5]; first value of cell) of 0.25 µg/mL (≈ 0.307 µM), an MBC ([5]; second value of cell) of 0.25 µg/mL (≈ 0.307 µM) and an MIC ([6]; first value of cell) of 0.25 µg/mL (≈ 0.307 µM). For the same compound, the MBC ([6]; second value of cell) was 0.25 µg/mL (≈ 0.307 µM), the “MPCs to four S. aureus strains” value (four S. aureus strains [7]) was 0.5 µg/mL and the IC50 (CYP3A4) was 1.57 µM. For the same compound, the “cytotoxicity on RAW264.7 cells” value (RAW264.7 cells) was “No significant cytotoxicity”, the IC50 at 24 h [8] was at least 20 µg/mL and the MPC (MRSA ATCC 43300 [9]) was 0.5 µg/mL. It also gave an MPC (S. aureus ATCC 29213 [10]) of 0.5 µg/mL, an MPC [11] of 0.5 µg/mL and an MPC [12] of 0.5 µg/mL. For the same compound, the mortality (ICR mice) was “None of the mice died”, the LD50 at 14 days [13] was over 5000 mg/kg and the “fold decrease in susceptibility of the most resistant strain” value (four S. aureus strains [14]; after 13 passages) was 32 fold. The “fold increase in MICs” value (four S. aureus strains [14]; after 13 passages) was “approximately 16 fold”, the “passages after which resistance developed (≥ 4-fold MIC increase)” value (four S. aureus strains [14]; four S. aureus strains) was 8 passages and the “fold increase in MIC” value (four S. aureus strains [14]; in 7 passages, sub-MIC (1/4 MIC) exposure) was at most 4 fold. For the same compound, the “fold difference of CYP2E1 IC50 relative to tiamulin” value (CYP2E1; Z33 vs tiamulin) was “at least 50 fold”, the IC50 (CYP2E1; Figure 6, read-out: IC50 CYP2E1 (value in plot key)) was 10.2 µM and the IC50 (CYP2E1; bound given in text, read-out: IC50 CYP2E1) was over 10 µM. The MIC (four S. aureus strains [15]) was 0.125 to 0.25 µg/mL (≈ 0.154 to 0.307 µM), the “MRSA inoculum in the thigh muscle” value (MRSA ATCC 43300 [16]; 20 mg/kg intravenous, after treatment for 24 h) was 7.065 ± 0.070 log10 CFU/g and the “reduction of bacterial load in the thigh muscle” value (MRSA ATCC 43300 [16]; 20 mg/kg intravenous, versus untreated group) was “approximately 1.358 log10 CFU/g”. The “reduction in CFUs compared with the control group” value (MRSA ATCC 43300 [16]; 20 mg/kg, p < 0.0001) was 1.358 log10.
